Measured values from ChEMBL document CHEMBL1151994, “Plant seeds as sources of potential industrial chemicals, pharmaceuticals, and pest control agents” (2009).
≈ marks a conversion by molar mass, not a printed value.

Tests used:
Format in all cases: functional
[1] = test system: Ostrinia nubilalis; assay: Insecticidal activity against Ostrinia nubilalis; conditions: read-out: LD50 (the source's name)
[2] = test system: KB; assay: Cytotoxicity against human KB cells; conditions: for EC50: Homo sapiens, KB, read-out: ED50 (the source's name)
[3] = test system: P388; assay: In vivo antitumor activity against mouse P388 cells at 1 to 3.3 mg/kg relative to control; conditions: dose mg/kg 1-3.3
[4] = test system: P388; assay: In vivo antitumor activity against mouse P388 cells at 0.25 to 1 mg/kg relative to control; conditions: dose mg/kg 0.25-1
[5] = test system: L1210; assay: In vivo antitumor activity against mouse L1210 cells at 0.25 to 1 mg/kg relative to control; conditions: dose mg/kg 0.25-1
[6] = test system: PS; assay: In vivo antitumor activity against […] PS cells at 8 to 23 ug/kg relative to control
[7] = In vivo antitumor activity against human B1 cells at 4 to 32 ug/kg relative to control
[8] = test system: PS; assay: In vivo antitumor activity against […] PS cells at 1 to 31 ug/kg relative to control

CO[C@@H]1[C@@H](O)[C@H](C)O[C@@H](O[C@H]2CC[C@@]3(C)[C@H](CC[C@@H]4[C@@H]3CC[C@]3(C)[C@@H](C5=CC(=O)OC5)CC[C@]43O)C2)[C@H]1OC(C)=O
LC50 [1]: 192 µg/mL (≈ 333 µM)

C/C=C(\C)C(=O)N[C@@H](c1ccccc1)[C@@H](O)C(=O)O[C@H]1C[C@@]2(O)[C@@H](OC(=O)c3ccccc3)[C@@H]3[C@]4(OC(C)=O)CO[C@@H]4C[C@H](O)[C@@]3(C)C(=O)[C@H](OC(C)=O)C(=C1C)C2(C)C [CEPHALOMANNINE]
EC50 [2]: 0.0038 µg/mL (≈ 0.00457 µM)
T/C [3]: 158%

CO[C@H]1[C@H](O)[C@H](O[C@H]2CC[C@@]3(C)[C@H](CC[C@@H]4[C@@H]3CC[C@]3(C)[C@@H](C5=CC(=O)OC5)CC[C@]43O)C2)O[C@@H](C)[C@@H]1O [NERIIFOLIN]
LC50 [1]: 30 µg/mL (≈ 56.1 µM)

COC(=O)C[C@](O)(CCCC(C)(C)O)C(=O)O[C@@H]1C(OC)=C[C@]23CCCN2CCc2cc4c(cc2[C@H]13)OCO4 [OMACETAXINE MEPESUCCINATE]
T/C [4]: 244%
T/C [5]: 123%

C=C1CO[C@](O)(C2OCOC(C3CC(=O)NC(=O)C3)[C@@H]2O)[C@H]1C (stereo partly specified) [SESBANIMIDE A]
EC50 [2]: 0.0077 µg/mL (≈ 0.0235 µM)
T/C [6]: 140%

COc1cc2cc(c1Cl)N(C)C(=O)C[C@H](OC(=O)[C@H](C)N(C)C(=O)C(C)C)[C@]1(C)O[C@H]1[C@H](C)[C@@H]1C[C@@](O)(NC(=O)O1)[C@H](OC)/C=C/C=C(\C)C2OC (stereo partly specified) [TREWIASINE]
T/C [7]: 165%
ED50 [2]: 2 ×10⁻⁴ ug/ml
T/C [8]: 126%
